Values after ≈ are worked out from the molar mass of the structure shown.
Key:
Escherichia coli = experiment: Antibacterial activity against Escherichia coli BE1121 by paper disc-agar diffusion method; assay type: functional
KB = experiment: Cytotoxicity against human KB cells; assay type: functional, cell-based

For `C=C(/N=[N+](\[O-])CC(C)C)C(=O)O`, the MIC (Escherichia coli) was 0.078 µg/mL (≈ 0.453 µM).

With `[O-]/[N+](CCCCCCCCCC/C=C\CCc1cccnc1)=N\CCCCCCCCCC/C=C\CCc1cccnc1` the IC50 (KB) was 1700 nM.
